From paper PMC5656653, “Evaluation of Ga-DOTA-(D-Asp)n as bone imaging agents: D-aspartic acid peptides as carriers to bone” (Scientific Reports, 2017)
Where a SMILES comes first, the peptide text is derived from it. [ ]: non-standard residue; d: D form. The star is where a group is joined. DOTA = O=C(O)CN1CCN(CC(=O)O)CCN(CC(=O)*)CCN(CC(=O)O)CC1

Assay: Biodistribution experiments in normal mice after i.v. injection
Type: in vivo
Conditions: mouse, in vivo, iv; for tissue uptake dose at 10 min / tissue uptake dose at 1 h / tissue uptake dose at 3 h: male, ddY, total radioactivity, Biodistribution of radioactivity
Description: Experiments with animals were conducted in strict accordance with the Guidelines for the Care and Use of Laboratory Animals of Kanazawa University. The animal experimental protocols used were approved by the Committee on Animal Experimentation of Kanazawa University (Permit Number: AP-132633). Biodistribution experiments were performed after intravenous administration of each diluted tracer solution (37–740 kBq/100 μL) to 6-week-old male ddY mice (27–32 g, Japan SLC, Inc., Hamamatsu, Japan). Four or five mice at each time point after the administration of each compound were sacrificed by decapitation at 10, 60, and 180 min post-injection. Tissues of interest were taken and weighed. Complete left femurs were isolated as representative bone samples, radioactivity was determined using gamma counters (AccuFLEX γ ARC-8001 in the case of ^18F, Hitachi, Ltd.), and background counts and physical decay were corrected during counting.

Row | SMILES | tissue uptake dose at 1 h (Blood) [%ID] | tissue uptake dose at 3 h (Blood) [%ID] | tissue uptake dose at 10 min (Bone (Femur)) [%ID] | tissue uptake dose at 1 h (Bone (Femur)) [%ID] | tissue uptake dose at 3 h (Bone (Femur)) [%ID] | tissue uptake dose at 10 min (Brain) [%ID] | tissue uptake dose at 1 h (Brain) [%ID] | tissue uptake dose at 3 h (Brain) [%ID] | tissue uptake dose at 10 min (Heart) [%ID] | tissue uptake dose at 1 h (Heart) [%ID] | tissue uptake dose at 3 h (Heart) [%ID] | tissue uptake dose at 10 min (Kidney) [%ID] | tissue uptake dose at 1 h (Kidney) [%ID] | tissue uptake dose at 3 h (Kidney) [%ID] | tissue uptake dose at 10 min (Large-intestine) [%ID] | tissue uptake dose at 1 h (Large-intestine) [%ID] | tissue uptake dose at 3 h (Large-intestine) [%ID] | tissue uptake dose at 10 min (Liver) [%ID] | tissue uptake dose at 1 h (Liver) [%ID] | tissue uptake dose at 3 h (Liver) [%ID] | further results
1 | O=C(O)C[C@@H](NC(=O)[C@@H](CC(=O)O)NC(=O)CN1CCN(CC(=O)O)CCN(CC(=O)O)CCN(CC(=O)O)CC1)C(=O)O [^67Ga-DOTA-(D-Asp)2, metal not drawn] ({DOTA}-[dD]-[dD]-OH) | 0.24 | 0.05 | 1.57 | 0.88 | 0.49 | 0.07 | 0.02 | 0.01 | 0.86 | 0.11 | 0.06 | 7.61 | 6.33 | 1.42 | 0.37 | 0.12 | 0.38 | 0.57 | 0.31 | 0.11 | tissue uptake dose at 10 min (Blood): 2.19 %ID; tissue uptake dose at 10 min (Lung): 1.45 %ID; tissue uptake dose at 1 h (Lung): 0.26 %ID; tissue uptake dose at 3 h (Lung): 0.08 %ID; tissue uptake dose at 10 min (Muscle): 0.53 %ID; tissue uptake dose at 1 h (Muscle): 0.11 %ID; tissue uptake dose at 3 h (Muscle): 0.08 %ID; tissue uptake dose at 10 min (Pancreas): 0.57 %ID; tissue uptake dose at 1 h (Pancreas): 0.15 %ID; tissue uptake dose at 3 h (Pancreas): 0.09 %ID; tissue uptake dose at 10 min (Small-intestine): 0.5 %ID; tissue uptake dose at 1 h (Small-intestine): 0.14 %ID; tissue uptake dose at 3 h (Small-intestine): 0.08 %ID; tissue uptake dose at 10 min (Spleen): 0.5 %ID; tissue uptake dose at 1 h (Spleen): 0.24 %ID; tissue uptake dose at 3 h (Spleen): 0.08 %ID; tissue uptake dose at 10 min (Stomach): 0.24 %ID; tissue uptake dose at 1 h (Stomach): 0.06 %ID; tissue uptake dose at 3 h (Stomach): 0.36 %ID; Accumulation of radioactivity in bone (in words): subtle accumulation of radioactivity in bone
2 | O=C(O)C[C@@H](NC(=O)[C@@H](CC(=O)O)NC(=O)[C@@H](CC(=O)O)NC(=O)[C@@H](CC(=O)O)NC(=O)[C@@H](CC(=O)O)NC(=O)CN1CCN(CC(=O)O)CCN(CC(=O)O)CCN(CC(=O)O)CC1)C(=O)O [^67Ga-DOTA-(D-Asp)5, metal not drawn] ({DOTA}-[dD][dD][dD][dD][dD]-OH) | 0.27 | 0.13 | 6.78 | 5.01 | 2.8 | 0.1 | 0.02 | 0.01 | 1.03 | 0.12 | 0.06 | 12 | 6.31 | 1.45 | 0.47 | 0.22 | 0.22 | 0.67 | 0.22 | 0.14 | tissue uptake dose at 10 min (Lung): 2.03 %ID; tissue uptake dose at 1 h (Lung): 0.3 %ID; tissue uptake dose at 3 h (Lung): 0.09 %ID; tissue uptake dose at 10 min (Muscle): 0.68 %ID; tissue uptake dose at 1 h (Muscle): 0.13 %ID; tissue uptake dose at 3 h (Muscle): 0.07 %ID; tissue uptake dose at 10 min (Pancreas): 0.72 %ID; tissue uptake dose at 1 h (Pancreas): 0.25 %ID; tissue uptake dose at 3 h (Pancreas): 0.06 %ID; tissue uptake dose at 10 min (Small-intestine): 0.55 %ID; tissue uptake dose at 1 h (Small-intestine): 0.23 %ID; tissue uptake dose at 3 h (Small-intestine): 0.18 %ID; tissue uptake dose at 10 min (Spleen): 0.56 %ID; tissue uptake dose at 1 h (Spleen): 0.16 %ID; tissue uptake dose at 3 h (Spleen): 0.11 %ID; tissue uptake dose at 10 min (Stomach): 0.32 %ID; tissue uptake dose at 1 h (Stomach): 0.1 %ID; tissue uptake dose at 3 h (Stomach): 0.48 %ID; Accumulation of radioactivity in bone (in words): moderate accumulation of radioactivity in bone
